Laboratory results: US11264117B2, “Neoantigen identification using hotspots” (Gritstone bio, Inc., priority 2017, dated 2022)
Ends that are not written are not given here.

Test system: IFNγ-producing T-cells
Experiment: IFN-gamma ELISpot on in vitro expanded (IVS) NSCLC patient PBMCs with patient-specific neoantigen peptide pools or individual peptides
Type: cell-based, human
Details: NSCLC patient PBMCs after IVS culture
Protocol: To do so, archival FFPE tumor biopsies and 5-30 ml of peripheral blood were analyzed from 9 patients with metastatic NSCLC undergoing anti-PD(L)1 therapy (Supplementary Table 2: Patient demographics and treatment information for N=9 patients studied in FIGS. 17A-C. Key fields include tumor stage and subtype, anti-PD1 therapy received, and summary of NGS results.). […] The full MS model was applied to prioritize 20 neoepitopes per patient for testing against pre-existing anti-tumor T-cell responses. To focus the analysis on likely CD8 responses, the prioritized peptides were synthesized as 8-11mer minimal epitopes (Methods), and then peripheral blood mononuclear cells (PBMCs) were cultured with the synthesized peptides in short in vitro stimulation (IVS) cultures to expand neoantigen-reactive T-cells (Supplementary Table 3). After two weeks the presence of antigen-specific T-cells was assessed using IFN-gamma ELISpot against the prioritized neoepitopes. In seven patients for whom sufficient PBMCs were available, separate experiments were also performed to fully or partially deconvolve the specific antigens recognized. The results are depicted in FIGS. 17A-C and 18A-21.
FIG. 17A depicts detection of T-cell responses to patient-specific neoantigen peptide pools for nine patients. […]

GTKKDVDVLK
T-cell recognition of individual peptide: recognized by CD8 T-cells
